Values quoted from earlier work in US11999734B2, “Compounds and compositions for the treatment of cystic fibrosis” (Fondazione Istituto Italiano Di Tecnologia, priority 2018, dated 2024).

How the values were obtained:
F508del-CFTR = F508del-CFTR (Homo sapiens, UniProt P13569, DEL508-508); conditions: chronic treatment of cells with VX-770; Cholon et al. 2014, Veit et al. 2014
Chain of F508del-CFTR (P13569 with tags, fused parts or gaps DEL508-508): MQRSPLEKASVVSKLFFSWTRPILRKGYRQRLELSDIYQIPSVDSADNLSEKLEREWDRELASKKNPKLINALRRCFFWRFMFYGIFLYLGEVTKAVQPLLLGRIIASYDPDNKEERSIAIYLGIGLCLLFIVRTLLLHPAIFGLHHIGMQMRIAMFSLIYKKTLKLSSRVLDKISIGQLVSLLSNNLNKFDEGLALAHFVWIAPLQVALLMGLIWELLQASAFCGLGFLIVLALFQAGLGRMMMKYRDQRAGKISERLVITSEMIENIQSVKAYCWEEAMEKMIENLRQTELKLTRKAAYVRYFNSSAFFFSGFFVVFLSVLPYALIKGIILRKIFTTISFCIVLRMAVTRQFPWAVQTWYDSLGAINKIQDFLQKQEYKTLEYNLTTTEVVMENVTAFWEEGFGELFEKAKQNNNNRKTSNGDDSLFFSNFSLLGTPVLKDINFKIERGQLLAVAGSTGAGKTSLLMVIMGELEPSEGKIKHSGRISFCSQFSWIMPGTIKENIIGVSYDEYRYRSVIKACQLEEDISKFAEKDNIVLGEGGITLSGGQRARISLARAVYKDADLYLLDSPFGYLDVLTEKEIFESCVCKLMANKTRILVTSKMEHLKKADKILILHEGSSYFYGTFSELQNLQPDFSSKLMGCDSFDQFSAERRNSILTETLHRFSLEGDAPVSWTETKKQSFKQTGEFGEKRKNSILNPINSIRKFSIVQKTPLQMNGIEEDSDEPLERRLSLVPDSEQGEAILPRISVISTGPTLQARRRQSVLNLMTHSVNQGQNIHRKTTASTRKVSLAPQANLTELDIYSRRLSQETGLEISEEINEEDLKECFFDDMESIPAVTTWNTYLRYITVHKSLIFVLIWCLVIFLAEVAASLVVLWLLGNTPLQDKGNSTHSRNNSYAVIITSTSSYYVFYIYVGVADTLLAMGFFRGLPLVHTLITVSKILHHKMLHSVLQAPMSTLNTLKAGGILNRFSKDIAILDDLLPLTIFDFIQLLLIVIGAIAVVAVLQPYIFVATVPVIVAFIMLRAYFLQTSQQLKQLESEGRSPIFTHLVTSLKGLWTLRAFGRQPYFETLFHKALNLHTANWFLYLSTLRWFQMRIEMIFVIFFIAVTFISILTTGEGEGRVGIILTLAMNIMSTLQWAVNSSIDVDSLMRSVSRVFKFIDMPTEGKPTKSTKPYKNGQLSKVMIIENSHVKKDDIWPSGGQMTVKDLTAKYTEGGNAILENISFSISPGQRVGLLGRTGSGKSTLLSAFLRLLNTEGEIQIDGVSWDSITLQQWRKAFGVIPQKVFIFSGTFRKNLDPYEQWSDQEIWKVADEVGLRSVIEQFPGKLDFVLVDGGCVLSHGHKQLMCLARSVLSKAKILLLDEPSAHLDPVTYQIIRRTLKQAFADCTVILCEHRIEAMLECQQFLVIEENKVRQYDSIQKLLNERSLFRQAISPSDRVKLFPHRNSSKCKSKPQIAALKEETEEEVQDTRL

SMILES | efficacy in clinical trials (CF patients; VX-770, Ramsey et al. 2011) | effect on corrector activity of VX-809 (F508del-CFTR) | therapeutic benefit in clinical trials (CF patients; CF patients with F508del mutation, Clancy et al. 2012)
CC(C)(C)c1cc(C(C)(C)C)c(NC(=O)c2c[nH]c3ccccc3c2=O)cc1O [VX-770, ivacaftor] | high efficacy | decreases the corrector activity of VX-809 | 
Cc1ccc(NC(=O)C2(c3ccc4c(c3)OC(F)(F)O4)CC2)nc1-c1cccc(C(=O)O)c1 [VX-809, lumacaftor] |  |  | did not show a clear therapeutic benefit
